From patent US4759929A, “Novel treatment” (Cabinet Harle & Phelip, priority 1987, dated 1988)

What was measured:
[1] = biological target: SAIDS virus reverse transcriptase (Simian retrovirus SRV-1, UniProt P04025); test: Reverse transcriptase assay, SAIDS virus; format: biochemical, Simian AIDS (SAIDS) virus; settings: for Percent inhibition / p. mole incorporated: SAIDS virus; for p. mole incorporated: control 0.43
Description: Simian AIDS (SAIDS) virus producing cells were provided by Murray Gardner, M.D. and supernatants of cell cultures were concentrated using polyethylene glycol (PEG) 10 percent precipitation. The precipitate was purified on a 20 to 60 percent sucrose gradient (50,000 g, 2.5 hours). Reverse transcriptase assays (see legend Table I) were performed on each fraction from the collected gradient. Maximum RT activity was found at a density of 1.18.
(§1) Assay mixtures are indicated in the legend of Table I. The reaction was stopped by treating the mixtures with sodium pyrophosphate and trichloracetic acid. The results are given as picomoles of tritiated deoxyribonucleotides monophosphate incorporated into DNA after 1 hour at 37° C.
(§2) HPA 23 inhibition of reverse transcriptase of SAIDS virus and LAV.
(§3) Reaction mixture (50 μl) contains: Tris 50 mM pH 7.9, 5 mM MgCl2,
(§4) OD/ml Oligo dT 12-18, and 200 pM ^3 HTTP (25 Ci/mM).

[2] = biological target: T1, LAV reverse transcriptase (Human immunodeficiency virus type 1 group M subtype B, UniProt P03367); test: Reverse transcriptase assay, LAV virus (non purified RT); format: biochemical, Lymphadenopathy associated virus (LAV); settings: for ID50: LAV virus (non purified RT), 1 hour at 37° C.; for Percent inhibition / p. mole incorporated: LAV virus; for p. mole incorporated: control 0.13
T1 construct: made in house; host or cells: LAV virions, PEG concentrated and sucrose gradient purified
Description: Lymphadenopathy associated virus (LAV) was purified. Briefly, after clarification, the virus was concentrated by PEG (10 percent), and then centrifuged for 1.5 hours at 55,000 g (IEC type SB 498 rotor) on a 10 to 60 percent sucrose gradient. Reverse transcriptase assays were performed on each fraction and the maximum RT activity was found at a density of 1.16 and corresponded to the purified virus fraction.
as §1, §2, §3, §4

[3] = biological target: T2, LAV purified reverse transcriptase (Human immunodeficiency virus type 1 group M subtype B, UniProt P03367); test: Reverse transcriptase assay, LAV purified RT; format: biochemical, Lymphadenopathy associated virus (LAV); settings: for p. mole incorporated: control 0.11
T2 construct: made in house
Description: LAV RT was purified. Briefly, 10^9 LAV infected cells were washed two times in PBS, resuspended in Tris 50 mM (pH 7.5) KCl 500 mM, ethylene diamine tetracetic acid (EDTA) 0.1 mM, dithiothreitol 1 mM and glycerol 10 percent, and frozen in liquid nitrogen. After incubation with Triton X100 0.01 percent at 37° C. (15 Min), cell homogenates were centrifuged at 100,000 g for one hour and the supernatant dialyzed six hours (KCl 100 mM). The dialyzate was chromatographed on a phosphocellulse column. RT and DNA polymerases were eluted from the column with a 0.1M to 1M KCl gradient.
as §1, §2, §3, §4

[4] = biological target: T2, LAV purified reverse transcriptase; test: Lineweaver-Burk kinetics, varying poly A oligo dT12-18 template primer concentration; format: biochemical, Lymphadenopathy associated virus (LAV); settings: for HPA23 inhibition: LAV purified RT, FIG. 1 legend
Description: The results of the Lineweaver-Burk plots of the effects of varying concentration of poly An oligo dT12-18 at two different HPA23 concentrations are summarized in FIG. 1. In the experimental conditions, kinetic enzymatic parameters are: KM=2.18 nM of polyA oligo dT, Vmax=0.02 pM of 3 HTMP incorporated sec^-1. […] The interaction of HPA23 with the template primer-enzyme complex should take place at the binding site of the template primer.
Lineweaver-Burk representation of the influence of poly A oligo T12-18 template concentration on the inhibition by HPA23 of LAV purified reverse transcriptase
A: picomoles of ^3 H TMP incorporated in five minutes at 37° C.
B: template primer concentration (OD ml^-1)
: control (no inhibition)
: inhibition dose corresponds to 65 percent HPA23 inhibition (19 μg/ml)
inhibition dose corresponds to 80 percent HPA23 inhibition (40 μg/ml)
Each plot-point is the mean of three experiments.

pancreatic DNase = pancreatic DNase (Bos taurus, UniProt P00639); test: Inhibition of pancreatic DNase (unpublished results); format: biochemical
pancreatic RNase = pancreatic RNase (Bos taurus, UniProt P61823); test: Inhibition of pancreatic RNase (unpublished results); format: biochemical
E. Coli RNase H = E. Coli RNase H (Escherichia coli, UniProt P0A7Y4); test: Inhibition of E. Coli RNase H (unpublished results); format: biochemical
cell growth = test: Inhibition of cell growth; format: cell-based
[5] = Pharmacokinetic studies in patient, I.V bolus infusion; format: in vivo, human; settings: patient 1; I.V bolus infusion (about two minutes)
T4 + Lymphocytes = test: T4+ lymphocytes number in treated patients; format: in vivo, human; settings: four patients; after therapy
AIDS or related syndrome = test: Clinical features after HPA23 treatment; format: in vivo, human
E. Coli DNA polymerases = settings: known; cited from earlier work
E. Coli RNA polymerases = E. Coli RNA polymerases (Escherichia coli, UniProt P0A8T7+P0A8V2); settings: known; cited from earlier work
[6] = test system: mammalian cellular DNA polymerases; settings: known; cited from earlier work
mouse α DNA polymerase = mouse α DNA polymerase (Mus musculus, UniProt P33609); settings: required doses much higher than those inhibiting reverse transcriptase; cited from earlier work
β DNA polymerase = β DNA polymerase (Mus musculus, UniProt Q8K409); settings: cited from earlier work
[7] = test system: MLV reverse transcriptase; settings: previously described; cited from earlier work
[8] = test system: Friend viruses and the plasma variant of Chirigos virus; settings: in vivo; cited from earlier work
encephalomyocarditis = settings: mice; cited from earlier work
[9] = test system: lymphatic choriomeningitis virus; settings: adult mice acutely infected; cited from earlier work
[10] = test system: spontaneous mammary tumors; settings: C3 HBi mice; cited from earlier work
scrapie = settings: mice infected with scrapie; cited from earlier work
[11] = test system: natural killer (NK) and killer cells (ADCC) function; settings: cited from earlier work
LAV = test: Isolation of LAV from peripheral blood T cell cultures and cocultures of treated patients (RT activity in supernatant)

SAIDS virus reverse transcriptase, sequence (P04025 913-1497): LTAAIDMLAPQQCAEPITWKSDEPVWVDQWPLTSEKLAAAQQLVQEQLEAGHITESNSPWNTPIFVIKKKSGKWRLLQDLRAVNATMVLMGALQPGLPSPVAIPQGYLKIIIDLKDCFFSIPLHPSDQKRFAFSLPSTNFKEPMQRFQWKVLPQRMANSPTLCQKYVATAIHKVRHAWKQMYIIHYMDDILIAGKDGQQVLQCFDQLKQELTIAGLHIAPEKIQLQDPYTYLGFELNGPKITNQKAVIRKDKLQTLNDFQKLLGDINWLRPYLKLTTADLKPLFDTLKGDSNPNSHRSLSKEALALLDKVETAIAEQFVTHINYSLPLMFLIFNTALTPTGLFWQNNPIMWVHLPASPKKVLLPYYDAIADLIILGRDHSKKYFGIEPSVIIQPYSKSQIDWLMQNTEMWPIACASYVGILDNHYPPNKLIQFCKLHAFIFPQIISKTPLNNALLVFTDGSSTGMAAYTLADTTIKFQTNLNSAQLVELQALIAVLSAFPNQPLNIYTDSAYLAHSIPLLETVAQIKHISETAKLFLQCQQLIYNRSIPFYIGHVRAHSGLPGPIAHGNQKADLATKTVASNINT
pancreatic DNase, sequence (P00639 23-282): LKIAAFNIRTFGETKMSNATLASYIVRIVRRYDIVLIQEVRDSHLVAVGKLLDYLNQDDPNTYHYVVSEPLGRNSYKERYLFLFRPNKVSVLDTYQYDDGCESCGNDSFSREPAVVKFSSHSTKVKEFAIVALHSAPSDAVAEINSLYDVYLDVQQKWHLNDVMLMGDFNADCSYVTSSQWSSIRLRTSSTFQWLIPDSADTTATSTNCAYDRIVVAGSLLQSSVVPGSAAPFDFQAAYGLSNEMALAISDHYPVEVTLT
mouse α DNA polymerase, sequence (P33609 whole entry): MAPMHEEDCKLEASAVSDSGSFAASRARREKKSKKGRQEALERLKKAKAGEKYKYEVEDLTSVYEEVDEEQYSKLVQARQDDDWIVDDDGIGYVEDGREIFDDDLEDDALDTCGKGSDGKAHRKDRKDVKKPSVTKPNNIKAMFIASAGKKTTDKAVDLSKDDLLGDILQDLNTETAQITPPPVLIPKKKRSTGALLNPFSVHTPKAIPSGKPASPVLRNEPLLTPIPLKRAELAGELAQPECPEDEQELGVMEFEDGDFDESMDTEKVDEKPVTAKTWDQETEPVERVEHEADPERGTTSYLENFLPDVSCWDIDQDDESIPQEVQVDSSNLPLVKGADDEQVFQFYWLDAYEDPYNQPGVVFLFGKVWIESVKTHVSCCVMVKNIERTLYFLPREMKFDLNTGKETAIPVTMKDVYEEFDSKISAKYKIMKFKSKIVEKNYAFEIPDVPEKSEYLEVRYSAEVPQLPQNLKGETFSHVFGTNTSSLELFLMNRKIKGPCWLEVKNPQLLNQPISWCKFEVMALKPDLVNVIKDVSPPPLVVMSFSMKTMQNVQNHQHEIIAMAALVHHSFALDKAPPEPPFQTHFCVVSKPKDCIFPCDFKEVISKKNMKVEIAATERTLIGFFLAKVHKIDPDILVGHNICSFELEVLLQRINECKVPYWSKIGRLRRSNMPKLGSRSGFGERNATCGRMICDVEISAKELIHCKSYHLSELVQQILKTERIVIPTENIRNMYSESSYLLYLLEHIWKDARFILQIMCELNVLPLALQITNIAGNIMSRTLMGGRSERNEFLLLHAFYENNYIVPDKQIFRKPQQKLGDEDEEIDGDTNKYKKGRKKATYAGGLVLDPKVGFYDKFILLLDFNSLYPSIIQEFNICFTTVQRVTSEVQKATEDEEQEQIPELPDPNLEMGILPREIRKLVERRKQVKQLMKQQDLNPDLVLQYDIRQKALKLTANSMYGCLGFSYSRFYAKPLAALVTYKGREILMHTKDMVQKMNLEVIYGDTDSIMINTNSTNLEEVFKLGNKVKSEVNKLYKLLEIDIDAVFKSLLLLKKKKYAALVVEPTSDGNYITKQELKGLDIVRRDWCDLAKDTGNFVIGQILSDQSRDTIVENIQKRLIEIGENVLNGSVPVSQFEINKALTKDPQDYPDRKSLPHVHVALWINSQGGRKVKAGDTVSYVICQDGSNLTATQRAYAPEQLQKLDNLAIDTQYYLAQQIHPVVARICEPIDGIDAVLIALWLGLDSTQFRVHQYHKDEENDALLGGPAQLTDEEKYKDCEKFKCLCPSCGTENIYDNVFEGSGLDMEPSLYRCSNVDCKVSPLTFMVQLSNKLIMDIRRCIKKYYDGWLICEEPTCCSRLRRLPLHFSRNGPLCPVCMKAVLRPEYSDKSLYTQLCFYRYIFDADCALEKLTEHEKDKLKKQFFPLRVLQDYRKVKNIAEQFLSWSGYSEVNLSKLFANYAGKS
pancreatic RNase, sequence (P61823 27-150): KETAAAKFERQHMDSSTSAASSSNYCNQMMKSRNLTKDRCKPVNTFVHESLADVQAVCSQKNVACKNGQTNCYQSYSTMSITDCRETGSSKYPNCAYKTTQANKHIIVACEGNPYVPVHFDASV
E. Coli RNase H, sequence (P0A7Y4 whole entry): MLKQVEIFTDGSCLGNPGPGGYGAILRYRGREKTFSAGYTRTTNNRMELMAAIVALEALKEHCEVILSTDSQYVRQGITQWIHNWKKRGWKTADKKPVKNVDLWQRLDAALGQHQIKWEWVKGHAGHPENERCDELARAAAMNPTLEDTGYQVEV

Ammonium-9-antimonio-III-21-tungsto-VII-sodate [HPA 23]
inhibition mechanism ([1]; SAIDS (monkey) virus enzyme, kinetic studies): competitive inhibition
ID50 ([1]; SAIDS virus RT, 1 hour at 37° C.): 1.1 µg/mL
Percent inhibition ([1]; inhibitor 0.5 μg/ml): 21%
p. mole incorporated ([1]; inhibitor 0.5 μg/ml): 0.34 p. mole
Percent inhibition ([1]; inhibitor 1 μg/ml): 35%
p. mole incorporated ([1]; inhibitor 1 μg/ml): 0.28 p. mole
Percent inhibition ([1]; inhibitor 2.5 μg/ml): 80%
p. mole incorporated ([1]; inhibitor 2.5 μg/ml): 0.09 p. mole
Percent inhibition ([1]; inhibitor 5 μg/ml): 94.5%
p. mole incorporated ([1]; inhibitor 5 μg/ml): 0.024 p. mole
Percent inhibition ([1]; inhibitor 10 μg/ml): 99.5%
p. mole incorporated ([1]; inhibitor 10 μg/ml): 0.0025 p. mole
Percent inhibition ([1]; inhibitor 25 μg/ml): 100%
p. mole incorporated ([1]; inhibitor 25 μg/ml): 0 p. mole
ID50 ([2]; 60 min): 30.5 µg/mL
ID50 ([2]; listed as HPA23, 60 min): 30 µg/mL
Percent inhibition ([2]; inhibitor 10 μg/ml): 2.4%
p. mole incorporated ([2]; inhibitor 10 μg/ml): 0.127 p. mole
Percent inhibition ([2]; inhibitor 25 μg/ml): 18.6%
p. mole incorporated ([2]; inhibitor 25 μg/ml): 0.013 p. mole
Percent inhibition ([2]; inhibitor 50 μg/ml): 84.4%
p. mole incorporated ([2]; inhibitor 50 μg/ml): 0.098 p. mole
Percent inhibition ([2]; inhibitor 60 μg/ml): 100%
p. mole incorporated ([2]; inhibitor 60 μg/ml): 0 p. mole
ID50 ([3]; 1 hour at 37° C.): 11 µg/mL
Percent inhibition ([3]; inhibitor 0.5 μg/ml): 4.5%
p. mole incorporated ([3]; inhibitor 0.5 μg/ml): 0.105 p. mole
Percent inhibition ([3]; inhibitor 1 μg/ml): 8.2%
p. mole incorporated ([3]; inhibitor 1 μg/ml): 0.101 p. mole
Percent inhibition ([3]; inhibitor 5 μg/ml): 33.6%
p. mole incorporated ([3]; inhibitor 5 μg/ml): 0.073 p. mole
Percent inhibition ([3]; inhibitor 10 μg/ml): 43.6%
p. mole incorporated ([3]; inhibitor 10 μg/ml): 0.062 p. mole
Percent inhibition ([3]; inhibitor 20 μg/ml): 61.8%
p. mole incorporated ([3]; inhibitor 20 μg/ml): 0.042 p. mole
Percent inhibition ([3]; inhibitor 30 μg/ml): 70.2%
p. mole incorporated ([3]; inhibitor 30 μg/ml): 0.032 p. mole
Percent inhibition ([3]; inhibitor 60 μg/ml): 94%
p. mole incorporated ([3]; inhibitor 60 μg/ml): 0.007 p. mole
Percent inhibition ([3]; inhibitor 100 μg/ml): 100%
p. mole incorporated ([3]; inhibitor 100 μg/ml): 0 p. mole
inhibition mechanism ([4]; LAV RT, versus template primer poly A oligo dT12-18): competitive inhibition
HPA23 inhibition ([4]; 19 μg/ml): 65%
HPA23 inhibition ([4]; 40 μg/ml): 80%
inhibition of pancreatic DNase (pancreatic DNase): does not inhibit
inhibition of pancreatic RNase (pancreatic RNase): does not inhibit
inhibition of E. Coli RNase H (E. Coli RNase H): does not inhibit
dose required to inhibit the cell growth relative to the one blocking RT activity (cell growth): twenty times higher
half life [5]: < 20 min
absolute numbers of T4 + cells and T4 /T8 ratio (T4 + Lymphocytes): did not change significantly
Kaposi's sarcoma evolution (AIDS or related syndrome; patient 3, 4 months outcome): stabilized their mucosal evolutive K.S., without regression
opportunistic infections (AIDS or related syndrome; patient one, one year after the end of HPA23 therapy): did not present anymore other opportunistic infections
recovery of the platelet count to the pretreatment value (each adult patient): between 21st day and the 45th day after
platelet toxicity (four patients): some platelet toxicity in three out of four cases
renal toxicity (four patients): No new renal toxicity was observed
recovery of hepatic transaminases to the pretreatment range (patients 2, 3 and 4): ≤ 21 days
elevations of the hepatic transaminases (patients 2, 3 and 4 during treatment): 2 ×normal value
inhibition of E. Coli DNA polymerases (E. Coli DNA polymerases): strong inhibitor
inhibition of E. Coli RNA polymerases (E. Coli RNA polymerases): strong inhibitor
inhibition of mammalian cellular DNA polymerases [6]: strong inhibitor
inhibition of mouse α DNA polymerase (mouse α DNA polymerase): inhibitor
effect on β DNA polymerase (β DNA polymerase): without any effect
inhibition of MLV reverse transcriptase [7]: competitive inhibitor
protection against leukemia [8]: protects
activity against lethal encephalomyocarditis infections (encephalomyocarditis): some activity
mortality [9]: reduces the mortality
occurrence of spontaneous mammary tumors [10]: reduces the occurance of spontaneous mammary tumors
disease / incubation period (scrapie): can prevent disease or prolong the incubation period
effect on NK and ADCC function [11]: stimulating agent
LAV detection in T cell cultures (LAV; patient 1, during each period of treatment, I.V bolus, 1 mg/kg to 3.3 mg/kg): LAV could no longer be detected
LAV isolation, even after cocultivation (LAV; patients 1 and 2, one month after the end of the treatment): LAV was not isolated
LAV detection in T cell cocultures (LAV; patients 2, 3 and 4, 30 days after the end of the treatment): LAV was again detected in the T cell cocultures in two of the three patients (3 and 4) at a very low level
LAV isolation from primary cultures and cocultures of patient T cells (LAV; patients 2, 3 and 4, following two weeks treatment, 200 mg IV infusion per day during 15 days): no virus (LAV) was isolated
